The source of these data is patent US6667173B2, “Nucleic acids encoding platelet derived growth factor-alpha receptors” (The Schepens Eye Research Institute, priority 2000, dated 2003).

One series has as its system SHP-2. The series is described as follows: Co-immunoprecipitation of SHP-2 with αPDGFR mutants in F cells. The format is cell-based, mouse. As to conditions: 50 ng/ml PDGF-BB, 5 minutes. How it is done: (§1) The ability of the αPDGFR mutants to undergo ligand dependent tyrosine phosphorylation and to associate with signaling enzymes was then tested. F cells expressing various αPDGFR mutants were grown to subconfluence and serum starved overnight. Cells were either left resting (−) or stimulated with 50 ng/ml PDGF-BB (+) for 5 minutes, and lysed. The αPDGFR was immunoprecipitated with αPDGFR antibody, as described above, and the resulting immunoprecipitates were resolved by 7.5% SDS-PAGE and transferred onto Immobilon. The segment of the blot containing the αPDGFR was first blotted with anti-phosphotyrosine antibodies, then stripped and reprobed with an anti-αPDGFR antibody. Portions of the membrane that contained the proteins of the appropriate molecular mass were immunoblotted for PLCγ, the regulatory subunit of PI3K (p85), or SHP-2. Crude rabbit anti-p85 antibody is from Dr. A. Toker (Beth Israel Hospital/Harvard Medical School, Boston, Mass.). The monoclonal antibodies against PLCγ and SHP-2 were purchased from Upstate Biotechnology Inc.

In the next series the test system is rabbit eyes. The series is described as follows: Rabbit PVR model: F cells expressing αPDGFR mutants injected into the vitreous. The class given is in vivo. As to conditions: up to 28 days after the surgery. How it is done:
PVR was induced in the rabbit eyes as previously described (Andrews, A. et al. (1999) Invest. Ophthalmol. Vis. Sci. 40:2683 and Nakagawa, M. et al. (1995) Invest. Ophthalmol. Vis. Sci. 36:2388). Briefly, gas vitrectomy was performed by injecting 0.4 ml of expanding perfluoropropane gas (C3F8) into the vitreous cavity 4 mm posterior to the corneal limbus under anesthetical condition. Three days later, the rabbits were anesthetized and the pupils were dilated. 0.1 ml DMEM containing 1×10^5 of RCFs expressing empty vector or αPDGFR mutant were injected into the vitreous cavity together with 0.1 ml of PRP using 30 G needle. Ten rabbits underwent surgery for each cell population expressing the empty vector or the truncated, E587K, T665M, D818N, or V859M αPDGFR mutants. One rabbit in the D818N group died just after the surgery, therefore the total number is 9 for this group. The retinal status was evaluated with an indirect ophthalmoscope fitted with a +30 D fundus lens at 1, 4, 7, 14, 21, and 28 days after the surgery. The PVR was graded from 0 through 5 according to the Fastenberg score. Fastenberg, D. M. et al. (1982) Am. J. Ophthalmol. 93:565. The grading is as follows: 0; no abnormality, 1; vitreous strand, 2; traction of the retina, 3; partial retinal detachment (less than 2 quadrant), 4; extended (more than 2 quadrant) but not total retinal detachment, 5; total retinal detachment. All surgeries were performed under aseptic conditions and pursuant to the regulation of the ARVO Statement for the Use of Animals in Ophthalmic and Vision Research. Only the left eye of each rabbit was used for the experiments.
An important component of PVR is the traction force that is generated when cells of the epiretinal membrane contract. To test if the signaling enzymes that are required for contraction in the in vitro assays also participate in PVR, the cells expressing the various αPDGFR mutants, described in the previous Examples, were assayed in a rabbit PVR model, described above. In this model, rabbits first undergo gas vitrectomy, and then cells are coinjected with […]. The formation of an epiretinal membrane and retinal detachment is observed in living animals over 28 days.
Briefly, PVR was induced by introducing F cells expressing the indicated αPDGFR into the vitreous of the rabbit eyes. The PVR score was evaluated up to 28 days after the surgery according to the classification described above. The mean value and standard error of the scores in a group were indicated. Each group contained 9 or 10 rabbits; the response to parental F cells was previously reported (Andrews et al., supra), and was included here for comparison purposes.

The next series deals with F cells. The series is described as follows: Collagen gel contraction assay of F cells expressing αPDGFR mutants. The format is cell-based, mouse. As to conditions: PDGF-BB (50 ng/ml), 48 hours. As for the experimental part:
(§2) The contraction assay was based on a previously described reference, Skuta, G. et al. (1999) J. Biol. Chem. 274:30163, with the following modifications. Fα cells were suspended in 1.5 mg/ml of neutralized collagen I (Cohesion vitrogen 100, Palo Alto, Calif.) at a density of 10^6 cells/ml, and were transferred into the 24-well plate (Falcon, Franklyn Lakes, N.J.) that had been preincubated with phosphate-buffer saline (PBS) with 5 mg/ml of bovine serum albumin (BSA) overnight. The gel was solidified by incubating at 37° C. for 90 minutes, and then the well was flooded with DMEM+5 mg/ml of BSA supplemented with an amount of vitreous such that the final concentration of vitreous in the culture medium was 1, 5 or 20%. The gels were incubated at 37° C. with 5% CO2. The initial gel diameter was 15 mm. The media was replaced every 24 hours and the gel diameter was measured after 48 hours. The extent of contraction was calculated by subtracting the diameter of the well at 48 hours from the initial diameter (15 mm). Each experimental condition was assayed in triplicate, and at least three independent experiments were performed. Unpaired t-test was performed to detect statistic difference in contraction assay.
To determine the signaling pathways that drive contraction, cells expressing the αPDGFR mutants were subjected to the collagen gel contraction assay described above. Accordingly, F cells expressing the indicated αPDGFRs were subjected to the collagen gel assay in the presence of buffer, PDGF-BB (50 ng/ml), TGFβ1 (1 ng/ml), or FBS (10%). The data presented are the mean±standard deviation measured at the 48 hours time point. Each experimental condition was assayed in triplicate, and at least 3 independent experiments were performed.

A further series has as its system PLCγ. The series can be described thus: Co-immunoprecipitation of PLCγ with αPDGFR mutants in F cells. The format is cell-based, mouse. As to conditions: 50 ng/ml PDGF-BB, 5 minutes. How it is done:
as §1

For the next series, the system named is FCX^2, Fα and Fβ cells. The series is described as follows: Collagen gel contraction assay of cells with no PDGFRs, αPDGFR or βPDGFR. The format is cell-based, mouse. The following applies: 50 ng/ml PDGF-BB; 24, 48, 72 hours. How it is done:
as §2, with “The gels were incubated at 37° C. with 5% CO2. The initial gel diameter was 15 mm.” left out, “Each experimental condition was assayed in triplicate, and at least three independent experiments were performed. Unpaired t-test was performed to detect statistic difference in contraction assay.” left out
The experiments described in Example 9 (FIG. 7B) were repeated with cells that express the βPDGFR (Fβ) instead of the αPDGFR, or no PDGFRs (FCX^2). Contraction was scored at the 48 hours time point. […]
To more directly test whether TGFβ could moderate contraction of fibroblasts via the αPDGFR, the response of the three cell lines to purified TGFβ was examined. […] The gel diameter was measured after 24, 48, or 72 hours, and the media was replaced every day.

The next series has as its target T1, αPDGFR (Homo sapiens, UniProt P16234).
T1 construct: expressed in transfected cells; host or cells: F cells (SV-40 immortalized mouse embryo fibroblasts lacking both PDGFRs), giving Fα
The series can be described thus: Tyrosine phosphorylation of the αPDGFR in TGFβ- or PDGF-treated F cells. The following applies: Fα cells; 50 ng/ml PDGF-BB 5 minutes or 1 ng/ml TGFβ1 5 minutes to 8 hours. The format is cell-based. As for the experimental part:
To show the effect of TGFβ on αPDGFR, the tyrosine phosphorylation state of the αPDGFR was assayed in TGFβ-treated cells. The F cells with or without PDGFR were grown to 80% confluent and then starved with DMEM containing 1% FBS for 20 hours. Cells were exposed at 37° C. for 5 minutes to either 50 ng/ml of PDGF-BB; with 1 ng/ml of TGFβ1 for 5 minutes, 1 hour, 2 hours, 4 hours, 6 hours or 8 hours; or were left unstimulated. After treatment the cells were washed twice with H/S (20 mM Hepes, pH 7.4, 150 mM NaCl) and then lysed in EB (10 mM Tris-HCl, pH 7.4, 5 mM EDTA, 50 mM NaCl, 50 mM NaF, 1% Triton-X 100, 0.1% BSA, 20 μg/ml aprotinin, 2 mM Na3VO4, 1 mM phenylmethylsulfonyl fluoride; PMSF). Lysates were centrifuged for 15 minutes at 13,000×g, the pellet was discarded and the soluble fraction was used as the total cell lysate. The protein concentration was measured using protein assay kit (Pierce, Rockfield, Ill.) following the manufacture's instructions.
Receptors were immunoprecipitated from the soluble fraction with the 27P antibody (described above). Immune complex was bound to formalin-fixed membranes of Staphylococcus aureus, spun through an EB sucrose gradient, and washed twice with EB, then with PAN (10 mM Pipes, pH 7.0, 100 mM NaCl, 1% aprotinin)+0.5% Nonidet P-40 (NP-40), and finally with PAN. The samples were resuspended in PAN before using for kinase assay or western blotting. […]

The subject of another series is GST-PLCγ. The series can be described thus: In vitro kinase assay of immunoprecipitated mutant αPDGFRs with exogenous substrate. The class given is biochemical. The following applies: 292 immunoprecipitates, [32P]-γ ATP, 30° C., 5 min. As for the experimental part: Mutant αPDGFRs were selectively immunoprecipitated with the 292 antibody, and samples representing 2×10^5 cells from 292 antibodies were subjected to an in vitro kinase assay. Immunoprecipitates were preincubated with 2 μg of GST protein for 10 min at 0° C., then 2 μg of Glutathione S-transferase fusion phospholipase C-gamma (GST-PLCγ, an exogenous substrate, 10 μCi of γ-[^32P] ATP (DuPont NEN Research Products, Boston, Mass.), and universal kinase buffer (UKB; 20 mM Pipes, pH 7.0, 10 mM MnCl2, 20 μg/ml aprotinin) were added. The samples were incubated at 30° C. for 5 min. The proteins were separated by 7.5% sodium dodecyl sulfate-polyacrylamide gel electrophoresis (SDS-PAGE), the gel was dried, and the radiolabeled protein was detected by autoradiography.

Entries after “also recorded” stand apart in the source; their conditions may differ.

T1 sequence (P16234 24-1089): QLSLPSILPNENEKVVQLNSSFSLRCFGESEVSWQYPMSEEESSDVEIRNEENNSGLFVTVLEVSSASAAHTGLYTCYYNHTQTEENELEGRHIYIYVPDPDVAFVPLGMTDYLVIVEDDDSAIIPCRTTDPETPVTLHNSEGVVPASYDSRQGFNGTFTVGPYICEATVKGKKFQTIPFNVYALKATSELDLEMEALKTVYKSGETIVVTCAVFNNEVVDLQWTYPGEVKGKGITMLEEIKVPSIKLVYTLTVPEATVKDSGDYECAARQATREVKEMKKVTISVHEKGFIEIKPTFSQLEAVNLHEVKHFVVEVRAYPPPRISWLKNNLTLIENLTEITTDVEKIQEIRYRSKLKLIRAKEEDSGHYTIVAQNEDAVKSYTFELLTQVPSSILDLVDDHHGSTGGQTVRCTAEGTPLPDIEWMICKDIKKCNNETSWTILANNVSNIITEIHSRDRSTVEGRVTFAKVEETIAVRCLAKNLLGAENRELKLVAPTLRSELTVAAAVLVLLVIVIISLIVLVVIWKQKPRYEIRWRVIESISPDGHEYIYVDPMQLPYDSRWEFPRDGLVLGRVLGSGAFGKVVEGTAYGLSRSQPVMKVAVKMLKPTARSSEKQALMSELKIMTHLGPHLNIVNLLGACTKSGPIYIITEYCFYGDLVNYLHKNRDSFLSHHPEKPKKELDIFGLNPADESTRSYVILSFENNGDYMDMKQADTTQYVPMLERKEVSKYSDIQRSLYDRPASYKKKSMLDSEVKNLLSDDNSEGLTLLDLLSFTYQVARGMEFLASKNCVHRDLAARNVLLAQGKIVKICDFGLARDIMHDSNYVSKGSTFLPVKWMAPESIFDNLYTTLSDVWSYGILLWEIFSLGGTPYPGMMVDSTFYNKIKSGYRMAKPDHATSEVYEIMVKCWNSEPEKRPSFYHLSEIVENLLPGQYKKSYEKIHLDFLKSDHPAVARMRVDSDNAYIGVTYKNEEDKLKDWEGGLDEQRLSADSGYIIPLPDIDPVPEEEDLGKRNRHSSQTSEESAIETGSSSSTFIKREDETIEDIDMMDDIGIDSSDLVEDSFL

As for “F720: αPDGFR mutant, Tyr to Phe substitution at 720”, the “recruitment of SHP-2 (Properties)” value in the series with SHP-2 is given as “failed to efficiently associate; also recorded: Fails to recruit SHP-2”. Also, the “potential to induce PVR (PVR score)” value with rabbit eyes is “induced PVR similarly to the WT receptor-expressing cells”. Also, the PDGF-dependent contraction result with F cells is reported as “somewhat reduced response”.
Consider “F1018: αPDGFR mutant, Tyr to Phe substitution at 1018”, for which the “potential to induce PVR (PVR score)” value in the series on rabbit eyes is on record as “significantly reduced”. Also, in the series with F cells, the PDGF-dependent contraction result was “severely compromised contraction”. Further, in the series on PLCγ, the “recruitment or activation of PLCγ (Properties)” value is reported as “failed to efficiently associate; also recorded: Fails to recruit or activate”.
In the case of PDGF, the PDGF-induced contraction result in the series on FCX^2, Fα and Fβ cells was “triggered the same extent of contraction of the Fα and Fβ cells”. In addition, the “tyrosine phosphorylation of the αPDGFR” value at αPDGFR is recorded as “greatly increased the receptor's phosphotyrosine content”.
In the case of “T665M: human αPDGFR point mutant, threonine at position 665 changed to methionine; SEQ ID NO: 6”, the “kinase activity towards exogenous substrate GST-PLCγ” value with GST-PLCγ was “more active than the WT receptor”.
As to “E587K: human αPDGFR point mutant, glutamic acid at position 587 changed to lysine; SEQ ID NO: 4”, in the series with GST-PLCγ, the “kinase activity towards exogenous substrate GST-PLCγ” value is “comparable to the WT receptor”.
